15 compounds from patent publication US20250163104A1, “MACROCYCLIC IMMUNOMODULATORS” (priority 2021, published 2025) can be followed below.

As usually defined, the IC50 is the midpoint of a concentration-inhibition curve.

Each structure is given as a SMILES string. Where a SMILES comes first, the peptide text is derived from it. Bridges are numbered along the chain shown (N, C = ends). [ ]: non-standard residue; d: D form. The star is where a group is joined. Phe(4-COOH) = N[C@@H](Cc1ccc(C(=O)O)cc1)C(=O)O; Bip = N[C@@H](Cc1ccc(-c2ccccc2)cc1)C(=O)O; 4Pal = N[C@@H](Cc1ccncc1)C(=O)O; Cha = N[C@@H](CC1CCCCC1)C(=O)O; Carboxymethyl = O=C(O)C*; Nle = CCCC[C@H](N)C(=O)O; Orn = NCCC[C@H](N)C(=O)O; Dab = NCC[C@H](N)C(=O)O; Dap = NC[C@H](N)C(=O)O

For the assay, the target named is T1, human PD-1 / PD-L1-Ig binding on Jurkat cell line over-expressing human PD-1 (Jurkat-PD-1) (Homo sapiens, UniProt Q15116).
T1 construct: expressed in transfected cells; host or cells: Jurkat
T1 sequence (Q15116 25-288): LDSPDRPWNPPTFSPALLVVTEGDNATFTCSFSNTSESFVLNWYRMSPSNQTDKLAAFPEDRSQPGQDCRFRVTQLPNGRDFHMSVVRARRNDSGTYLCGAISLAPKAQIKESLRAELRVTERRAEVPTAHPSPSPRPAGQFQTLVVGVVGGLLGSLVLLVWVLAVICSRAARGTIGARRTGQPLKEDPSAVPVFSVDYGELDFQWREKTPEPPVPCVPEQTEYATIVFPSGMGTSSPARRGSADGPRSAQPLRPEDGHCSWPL
Put plainly: Jurkat-PD-1 Cell Binding High-Content Screening Assay (CBA). It counts as cell-based. The following applies: Jurkat-PD-1 cells, PE-labeled PD-L1-Ig 20 nM final; read-out: Jurkat HPD1_PDL1 IC50. In short, it runs like this: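 Jurkat-hPD-1 cells in DMEM with 10% fetal calf serum receive test compound and are held at 37° C for 2 h. PE-labeled PD-L1-Ig is added at 20 nM final and left for 1 hour. Cells are then fixed and Hoechst-stained, and binding is measured by imaging.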
Turning to `CCCC[C@@H]1NC(=O)[C@H](CC(N)=O)NC(=O)[C@@H](CC(C)C)NC(=O)[C@H](CN)NC(=O)[C@H](C(C)C)NC(=O)[C@H](Cc2ccc(-c3ccccc3)cc2)NC(=O)[C@H](CC(C)C)NC(=O)[C@H](Cc2c[nH]c3ccccc23)NC(=O)[C@H](CC(=O)O)NC(=O)[C@H](Cc2ccc(C(=O)O)cc2)NC(=O)[C@H](Cc2ccc(OCC(=O)O)cc2)NC(=O)CSC[C@@H](C(=O)NCC(N)=O)NC(=O)[C@H](CO)NC(=O)[C@H](C(C)C)NC1=O` [Compound 1398] ({CH2CO}-Y(Carboxymethyl)[Phe(4-COOH)]DWL[Bip]V[Dap][dL]N[Nle]VSCG-NH2; thioether N-14), the IC50 came to 23.7 nM.

For the compound `CCCC[C@@H]1NC(=O)[C@H](CC(N)=O)NC(=O)[C@@H](CC(C)C)NC(=O)[C@H](CN)NC(=O)[C@H](C(C)C)NC(=O)[C@H](Cc2ccc(-c3ccccc3)cc2)NC(=O)[C@H](CC(C)C)NC(=O)[C@H](Cc2c[nH]c3ccccc23)NC(=O)[C@H](CC(=O)O)NC(=O)[C@H](Cc2ccc(OCC(=O)O)cc2)NC(=O)[C@H](CN)NC(=O)CSC[C@@H](C(=O)NCC(N)=O)NC(=O)[C@H](CO)NC(=O)[C@H](C(C)C)NC1=O` [Compound 1399] ({CH2CO}-[Dap]Y(Carboxymethyl)DWL[Bip]V[Dap][dL]N[Nle]VSCG-NH2; thioether N-14), the IC50 came out at 16.1 nM.

In the case of `CCCC[C@@H]1NC(=O)[C@H](CC(N)=O)NC(=O)[C@@H](CC(C)C)NC(=O)[C@H](CN)NC(=O)[C@H](C(C)C)NC(=O)[C@H](Cc2ccc(-c3ccccc3)cc2)NC(=O)[C@H](CC(C)C)NC(=O)[C@H](Cc2c[nH]c3ccccc23)NC(=O)[C@H](CC(=O)O)NC(=O)[C@H](Cc2ccncc2)NC(=O)[C@H](CN)NC(=O)CSC[C@@H](C(=O)NCC(N)=O)NC(=O)[C@H](CO)NC(=O)[C@H](C(C)C)NC1=O` [Compound 1400] ({CH2CO}-[Dap][4Pal]DWL[Bip]V[Dap][dL]N[Nle]VSCG-NH2; thioether N-14), the half-maximal inhibitory concentration (IC50) stood at 29.1 nM.

As to `CCCC[C@@H]1NC(=O)[C@H](CC(N)=O)NC(=O)[C@@H](CC(C)C)NC(=O)[C@H](CN)NC(=O)[C@H](C(C)C)NC(=O)[C@H](Cc2ccc(-c3ccccc3)cc2)NC(=O)[C@H](CC(C)C)NC(=O)[C@H](Cc2c[nH]c3ccccc23)NC(=O)[C@H](CC(=O)O)NC(=O)[C@H](Cc2ccncc2)NC(=O)[C@H](Cc2ccc(OCC(=O)O)cc2)NC(=O)CSC[C@@H](C(=O)NCC(N)=O)NC(=O)[C@H](CO)NC(=O)[C@H](C(C)C)NC1=O` [Compound 1401] ({CH2CO}-Y(Carboxymethyl)[4Pal]DWL[Bip]V[Dap][dL]N[Nle]VSCG-NH2; thioether N-14), the half-maximal inhibitory concentration (IC50) came out at 22 nM.

With `CC(C)C[C@@H]1NC(=O)[C@H](Cc2c[nH]c3ccccc23)NC(=O)[C@H](CC(=O)O)NC(=O)[C@H](Cc2ccc(OCC(=O)O)cc2)NC(=O)[C@H](Cc2ccncc2)NC(=O)CSC[C@@H](C(=O)NCC(N)=O)NC(=O)[C@H](CO)NC(=O)[C@H](C(C)C)NC(=O)[C@H](CC2CCCCC2)NC(=O)[C@H](CCN)NC(=O)[C@@H](CC(C)C)NC(=O)[C@H](CCCN)NC(=O)[C@H](C(C)C)NC(=O)[C@H](Cc2ccc(-c3ccccc3)cc2)NC1=O` [Compound 1402] ({CH2CO}-[4Pal]Y(Carboxymethyl)DWL[Bip]V[Orn][dL][Dab][Cha]VSCG-NH2; thioether N-14), the IC50 turned out to be 9.9 nM.

`CC(C)C[C@@H]1NC(=O)[C@H](Cc2c[nH]c3ccccc23)NC(=O)[C@H](CC(=O)O)NC(=O)[C@H](Cc2ccc(OCC(=O)O)cc2)NC(=O)[C@H](CN)NC(=O)CSC[C@@H](C(=O)NCC(N)=O)NC(=O)[C@H](CO)NC(=O)[C@H](C(C)C)NC(=O)[C@H](CC2CCCCC2)NC(=O)[C@H](CCN)NC(=O)[C@@H](CC(C)C)NC(=O)[C@H](CCCN)NC(=O)[C@H](C(C)C)NC(=O)[C@H](Cc2ccc(-c3ccccc3)cc2)NC1=O` [Compound 1403] ({CH2CO}-[Dap]Y(Carboxymethyl)DWL[Bip]V[Orn][dL][Dab][Cha]VSCG-NH2; thioether N-14): the half-maximal inhibitory concentration (IC50) is 5.9 nM.

For `CC(C)C[C@@H]1NC(=O)[C@H](Cc2c[nH]c3ccccc23)NC(=O)[C@H](CC(=O)O)NC(=O)[C@H](Cc2ccc(OCC(=O)O)cc2)NC(=O)[C@H](Cc2ccc(OCC(=O)O)cc2)NC(=O)CSC[C@@H](C(=O)NCC(N)=O)NC(=O)[C@H](CO)NC(=O)[C@H](C(C)C)NC(=O)[C@H](CC2CCCCC2)NC(=O)[C@H](CCN)NC(=O)[C@@H](CC(C)C)NC(=O)[C@H](CCCN)NC(=O)[C@H](C(C)C)NC(=O)[C@H](Cc2ccc(-c3ccccc3)cc2)NC1=O` [Compound 1404] ({CH2CO}-Y(Carboxymethyl)Y(Carboxymethyl)DWL[Bip]V[Orn][dL][Dab][Cha]VSCG-NH2; thioether N-14), the IC50 was 5.1 nM.

As for `CC(C)C[C@@H]1NC(=O)[C@H](Cc2c[nH]c3ccccc23)NC(=O)[C@H](CC(=O)O)NC(=O)[C@H](Cc2ccc(C(=O)O)cc2)NC(=O)[C@H](Cc2ccc(OCC(=O)O)cc2)NC(=O)CSC[C@@H](C(=O)NCC(N)=O)NC(=O)[C@H](CO)NC(=O)[C@H](C(C)C)NC(=O)[C@H](CC2CCCCC2)NC(=O)[C@H](CCN)NC(=O)[C@@H](CC(C)C)NC(=O)[C@H](CCCN)NC(=O)[C@H](C(C)C)NC(=O)[C@H](Cc2ccc(-c3ccccc3)cc2)NC1=O` [Compound 1405] ({CH2CO}-Y(Carboxymethyl)[Phe(4-COOH)]DWL[Bip]V[Orn][dL][Dab][Cha]VSCG-NH2; thioether N-14), the IC50 is 7.4 nM.

Consider `CC(C)C[C@@H]1NC(=O)[C@H](Cc2c[nH]c3ccccc23)NC(=O)[C@H](CC(=O)O)NC(=O)[C@H](Cc2ccncc2)NC(=O)[C@H](Cc2ccc(OCC(=O)O)cc2)NC(=O)CSC[C@@H](C(=O)NCC(N)=O)NC(=O)[C@H](CO)NC(=O)[C@H](C(C)C)NC(=O)[C@H](CC2CCCCC2)NC(=O)[C@H](CCN)NC(=O)[C@@H](CC(C)C)NC(=O)[C@H](CCCN)NC(=O)[C@H](C(C)C)NC(=O)[C@H](Cc2ccc(-c3ccccc3)cc2)NC1=O` [Compound 1406] ({CH2CO}-Y(Carboxymethyl)[4Pal]DWL[Bip]V[Orn][dL][Dab][Cha]VSCG-NH2; thioether N-14), for which the 50% inhibitory concentration (IC50) came to 15.9 nM.

`CCCC[C@@H]1NC(=O)[C@H](CCN)NC(=O)[C@@H](CC(C)C)NC(=O)[C@H](CCCN)NC(=O)[C@H](C(C)C)NC(=O)[C@H](Cc2ccc(-c3ccccc3)cc2)NC(=O)[C@H](CC(C)C)NC(=O)[C@H](Cc2c[nH]c3ccccc23)NC(=O)[C@H](CC(=O)O)NC(=O)[C@H](Cc2ccc(OCC(=O)O)cc2)NC(=O)[C@H](Cc2ccncc2)NC(=O)CSC[C@@H](C(=O)NCC(N)=O)NC(=O)[C@H](CO)NC(=O)[C@H](C(C)C)NC1=O` [Compound 1407] ({CH2CO}-[4Pal]Y(Carboxymethyl)DWL[Bip]V[Orn][dL][Dab][Nle]VSCG-NH2; thioether N-14): the half-maximal inhibitory concentration (IC50) is 7.9 nM.

`CCCC[C@@H]1NC(=O)[C@H](CCN)NC(=O)[C@@H](CC(C)C)NC(=O)[C@H](CCCN)NC(=O)[C@H](C(C)C)NC(=O)[C@H](Cc2ccc(-c3ccccc3)cc2)NC(=O)[C@H](CC(C)C)NC(=O)[C@H](Cc2c[nH]c3ccccc23)NC(=O)[C@H](CC(=O)O)NC(=O)[C@H](Cc2ccc(OCC(=O)O)cc2)NC(=O)[C@H](CN)NC(=O)CSC[C@@H](C(=O)NCC(N)=O)NC(=O)[C@H](CO)NC(=O)[C@H](C(C)C)NC1=O` [Compound 1408] ({CH2CO}-[Dap]Y(Carboxymethyl)DWL[Bip]V[Orn][dL][Dab][Nle]VSCG-NH2; thioether N-14): the IC50 is 8.2 nM.

Take `CCCC[C@@H]1NC(=O)[C@H](CCN)NC(=O)[C@@H](CC(C)C)NC(=O)[C@H](CCCN)NC(=O)[C@H](C(C)C)NC(=O)[C@H](Cc2ccc(-c3ccccc3)cc2)NC(=O)[C@H](CC(C)C)NC(=O)[C@H](Cc2c[nH]c3ccccc23)NC(=O)[C@H](CC(=O)O)NC(=O)[C@H](Cc2ccc(OCC(=O)O)cc2)NC(=O)[C@H](Cc2ccc(OCC(=O)O)cc2)NC(=O)CSC[C@@H](C(=O)NCC(N)=O)NC(=O)[C@H](CO)NC(=O)[C@H](C(C)C)NC1=O` [Compound 1409] ({CH2CO}-Y(Carboxymethyl)Y(Carboxymethyl)DWL[Bip]V[Orn][dL][Dab][Nle]VSCG-NH2; thioether N-14): the IC50 was determined as 16.8 nM.

For the compound `CCCC[C@@H]1NC(=O)[C@H](CCN)NC(=O)[C@@H](CC(C)C)NC(=O)[C@H](CCCN)NC(=O)[C@H](C(C)C)NC(=O)[C@H](Cc2ccc(-c3ccccc3)cc2)NC(=O)[C@H](CC(C)C)NC(=O)[C@H](Cc2c[nH]c3ccccc23)NC(=O)[C@H](CC(=O)O)NC(=O)[C@H](Cc2ccc(C(=O)O)cc2)NC(=O)[C@H](Cc2ccc(OCC(=O)O)cc2)NC(=O)CSC[C@@H](C(=O)NCC(N)=O)NC(=O)[C@H](CO)NC(=O)[C@H](C(C)C)NC1=O` [Compound 1410] ({CH2CO}-Y(Carboxymethyl)[Phe(4-COOH)]DWL[Bip]V[Orn][dL][Dab][Nle]VSCG-NH2; thioether N-14), the IC50 was 7.3 nM.

On to `CCCC[C@@H]1NC(=O)[C@H](CCN)NC(=O)[C@@H](CC(C)C)NC(=O)[C@H](CCCN)NC(=O)[C@H](C(C)C)NC(=O)[C@H](Cc2ccc(-c3ccccc3)cc2)NC(=O)[C@H](CC(C)C)NC(=O)[C@H](Cc2c[nH]c3ccccc23)NC(=O)[C@H](CC(=O)O)NC(=O)[C@H](Cc2ccncc2)NC(=O)[C@H](Cc2ccc(OCC(=O)O)cc2)NC(=O)CSC[C@@H](C(=O)NCC(N)=O)NC(=O)[C@H](CO)NC(=O)[C@H](C(C)C)NC1=O` [Compound 1411] ({CH2CO}-Y(Carboxymethyl)[4Pal]DWL[Bip]V[Orn][dL][Dab][Nle]VSCG-NH2; thioether N-14), for which the IC50 is 9.5 nM.

For the compound `CC(C)C[C@H]1NC(=O)[C@H](CN)NC(=O)[C@H](C(C)C)NC(=O)[C@H](Cc2ccc(-c3ccccc3)cc2)NC(=O)[C@H](C(C)C)NC(=O)[C@H](Cc2c[nH]c3ccccc23)NC(=O)[C@H](CC(=O)O)NC(=O)[C@H](Cc2ccc(O)cc2)NC(=O)[C@H](Cc2ccccc2)NC(=O)CSC[C@@H](C(=O)NCC(N)=O)NC(=O)[C@H](CO)NC(=O)[C@H](C(C)C)NC(=O)[C@H](CC2CCCCC2)NC(=O)[C@H](CC(N)=O)NC1=O` [Compound 1412] ({CH2CO}-FYDWV[Bip]V[Dap][dL]N[Cha]VSCG-NH2; thioether N-14), the IC50 came out at 26.9 nM.
